Data on one compound can be found in US9458095B2, “Oligo-benzamide compounds and their use in treating cancers” (The Board of Regents of the University of Texas System, priority 2011, dated 2016).

What all share (format): cell-based
In assay [1] the target is T1, ARv7 (Homo sapiens, UniProt P10275).
T1 sequence (P10275 1-644 isoform P10275-3): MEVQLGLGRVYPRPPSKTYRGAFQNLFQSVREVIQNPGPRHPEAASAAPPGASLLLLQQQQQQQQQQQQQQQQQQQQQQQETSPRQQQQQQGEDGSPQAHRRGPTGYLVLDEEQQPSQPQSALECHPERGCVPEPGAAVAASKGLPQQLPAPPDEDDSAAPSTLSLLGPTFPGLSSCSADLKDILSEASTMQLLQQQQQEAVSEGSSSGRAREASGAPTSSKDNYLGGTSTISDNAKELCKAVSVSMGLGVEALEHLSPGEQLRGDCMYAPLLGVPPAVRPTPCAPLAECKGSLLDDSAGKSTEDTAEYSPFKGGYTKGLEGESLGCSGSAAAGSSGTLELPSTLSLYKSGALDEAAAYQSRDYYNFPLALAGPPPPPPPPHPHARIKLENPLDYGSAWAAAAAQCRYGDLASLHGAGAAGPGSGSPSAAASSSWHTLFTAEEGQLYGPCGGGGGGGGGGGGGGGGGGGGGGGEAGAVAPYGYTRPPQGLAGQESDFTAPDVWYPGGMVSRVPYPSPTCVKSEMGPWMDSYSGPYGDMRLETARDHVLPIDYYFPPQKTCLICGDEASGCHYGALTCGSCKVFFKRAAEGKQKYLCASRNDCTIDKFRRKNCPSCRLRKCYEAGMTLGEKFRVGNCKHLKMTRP
Nature of the assay: ARE-luciferase reporter in PC-3 cells expressing ARv7. The conditions noted are these: 100 nM peptidomimetic, 48 h. Set-up: expressed in transfected cells; host or cells: PC-3 cells (A4); M12 cells (A9). On the procedure:
(§1) FIGS. 2A-D. Oligobenzamide control of PC3 cell proliferation. (FIG. 2A) Structure of AR deletion mutants with numbered exons (FIG. 2B) Effect of D2 and T6 on basal (AI) and AD transcription. PC-3 cells were transiently transfected with ARE-luciferase along with plasmids expressing ARwt (FIG. 2B), ARv7 (FIG. 2C) or ARΔ1 (FIG. 2D). Cells were maintained for 48 h either without (EtOH) or with (1 nM DHT) and in the presence of 100 nM of peptidomimetic or volume equivalent of vehicle (DMSO) control. Luciferase assay results are shown. Data is normalized to the basal level of expression with AR wt in PC3 cells.
FIGS. 3A-B. Effect of T6 on basal transcription driven by splice variants. PC-3 cells were transiently transfected with ARE-luciferase along with plasmids expressing ARv7 (FIG. 3A) or AR567 (FIG. 3B). Cells were maintained for 48 h either without (EtOH) or with (1 nM DHT) and in the presence of 100 nM of peptidomimetic or volume equivalent of vehicle (DMSO) control. Luciferase assay results are shown. Data is normalized to the basal level of expression with AR wt in PC3 cells.
Since the WxxLF motif is also present in the truncated forms of the androgen receptor, the inventors then evaluated the ability of the peptidomimetics to block ARv7-driven transcription from a minimal ARE luciferase reporter. […]
(In general: A reporter such as luciferase makes a cellular process visible.)

In assay [2] the test system is WxxLF motif on AR. Nature of the assay: Gal4-3WxxLF and AR-Gal4 (hARGAL4/PSAenhGAL4-luc) luciferase reporter assays. The conditions noted are these: 100 nM peptidomimetic, 48 h, absence of androgens. The procedure: FIGS. 1A-D. Oligobenzamide control of C4-2 cell proliferation. (FIG. 1A) Chemical structure of T6. (FIG. 1B) C4-2 cells were transiently transfected with Gal4-3WxxLF promoter or (FIG. 1C) with synthetic hARGAL4 and the PSAenhGAL4-luc reporter. Cells were maintained for 48 h in the absence of androgens and with either 100 nM of peptidomimetic or volume equivalent of vehicle (DMSO) control and luciferase activity measured. (FIG. 1D) Peptidomimetics knocked down ligand independent proliferation in C4-2 cells
Ligand independent activation involves the WxxLF motif, whose tertiary structure has not been crystallographically resolved. Indeed, binding partners of AR through this WxxLF motif have not been determined. […] Based on this model, the inventors designed three peptidomimetics T6, T21 and T26 to mimic the ^435WxxLF^439 motif on AR and to target PPIs through this domain (FIG. 1A). The screening strategy involved the use of synthetic Gal4-3WxxLF (Gal4 reporter driven by 3 copies of the WxxLF motif) (FIG. 1B) and AR-Gal4 constructs (wt AR with its DNA binding domain replaced by Gal4 DNA binding domain) (from Dr. Dehm, U. Minnesota) (FIG. 1C) […]. T21, T26, or T6 (but not the control T6R) knocked down the basal ligand independent transcription from this WxxLF driven promoters. Further, these peptidomimetics abrogated ligand independent proliferation of C4-2 cells (FIG. 1D).

Assay [3] concerns the target T2, ARwt (Homo sapiens, UniProt P10275).
T2 construct: expressed in transfected cells; host or cells: PC-3 cells (A3); M12 cells (A8)
T2 sequence (P10275 1-920): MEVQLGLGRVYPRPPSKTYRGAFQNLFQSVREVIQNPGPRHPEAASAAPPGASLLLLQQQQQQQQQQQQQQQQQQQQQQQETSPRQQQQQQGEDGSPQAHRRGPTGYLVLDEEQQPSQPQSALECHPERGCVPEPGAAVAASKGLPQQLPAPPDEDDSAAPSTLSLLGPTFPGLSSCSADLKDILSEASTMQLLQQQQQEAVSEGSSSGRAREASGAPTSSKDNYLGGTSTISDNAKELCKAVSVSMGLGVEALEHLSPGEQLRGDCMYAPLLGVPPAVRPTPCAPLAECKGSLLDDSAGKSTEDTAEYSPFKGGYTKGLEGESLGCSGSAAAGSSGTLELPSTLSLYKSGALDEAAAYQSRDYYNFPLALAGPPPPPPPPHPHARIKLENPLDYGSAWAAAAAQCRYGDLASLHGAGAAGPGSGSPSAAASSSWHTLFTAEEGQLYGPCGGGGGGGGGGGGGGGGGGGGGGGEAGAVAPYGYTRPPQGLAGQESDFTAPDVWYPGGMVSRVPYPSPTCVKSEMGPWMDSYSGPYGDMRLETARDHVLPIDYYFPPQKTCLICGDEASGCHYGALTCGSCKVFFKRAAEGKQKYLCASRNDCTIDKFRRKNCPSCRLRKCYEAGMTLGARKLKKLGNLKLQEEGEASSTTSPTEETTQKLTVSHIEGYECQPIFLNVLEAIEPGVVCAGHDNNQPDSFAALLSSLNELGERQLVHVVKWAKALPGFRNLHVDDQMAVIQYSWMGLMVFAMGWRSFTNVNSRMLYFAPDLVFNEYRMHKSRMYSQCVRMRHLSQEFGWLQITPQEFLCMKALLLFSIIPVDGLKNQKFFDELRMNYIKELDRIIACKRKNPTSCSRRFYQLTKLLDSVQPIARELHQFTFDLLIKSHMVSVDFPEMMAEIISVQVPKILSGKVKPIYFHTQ
The assay can be described thus: ARE-luciferase reporter in PC-3 cells expressing ARwt. Particulars: 1 nM DHT, 100 nM peptidomimetic, 48 h. The procedure:
as §1
Since the WxxLF motif is also present in the truncated forms of the androgen receptor, the inventors then evaluated the ability of the peptidomimetics to block ARv7-driven transcription from a minimal ARE luciferase reporter. […] These findings were confirmed with a synthetic AR with point mutations in the WxxLF motif (data not shown).

“Also recorded” adds a separate entry of the source.

On to `CC(C)COc1cc(C(N)=O)ccc1NC(=O)c1ccc(NC(=O)c2ccc([N+](=O)[O-])c(OCCc3ccc4ccccc4c3)c2)c(OCC(C)C)c1` [T6], for which, in assay [1], the ARv7-mediated transcription entry is on record as “able to block; also recorded: decreases”. Also, the “basal ligand independent transcription from WxxLF driven promoters” value in assay [2] was “knocked down”. In assay [3], the “Ligand dependent transcription mediated by ARwt” value is “able to suppress”.
